Measurements taken from the supplement of paper PMC10307832.

Compound: CC(C)(C)c1cc(NC(=O)Nc2ccc(-c3cn4c(n3)sc3cc(OCCN5CCOCC5)ccc34)cc2)no1 [Quizartinib] + Nc1nc2[nH]cc(CCc3ccc(C(=O)N[C@@H](CCC(=O)O)C(=O)O)cc3)c2c(=O)[nH]1 [Pemetrexed] (partner 0.2 µM)
Assay: relative viability (nuclei count vs DMSO), 5 days (fraction); higher = more cells survive
Settings: first compound 0.001 µM
Method in brief: (§1)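 Medians of duplicate plates are given as relative viability. That measure is the nuclei count in treated wells divided by the count in vehicle wells. Counts were taken on 4× images of lung cancer cell lines in 1536-well plates, 5 days after pin-tool dosing the day after seeding with one drug alone or a fixed anchor-drug dose plus five library-drug doses (not always all listed) in √10 steps.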

Cell Line	relative viability
NCI-H3122	0.185
A-427	0.781
LOU-NH91	0.394
NCI-H596	0.511
NCI-H1666	0.772
NCI-H23	0.6
NCI-H838	0.244
NCI-H322M	0.6
NCI-H441	0.261
SW 1573	0.872
201T	0.272
NCI-H1755	0.316
NCI-H1650	0.342
COR-L23	0.193
NCI-H2085	0.82
BEN	0.739
PC-3 [JPC-3]	0.845
LC-2-ad	0.275

Same assay, conditions: first compound 0.003162 µM

Cell Line	relative viability
HCC-78	0.882
COR-L 105	1.18
HCC-15	0.21
HARA	0.266
NCI-H1975	0.306
NCI-H2126	0.658
EMC-BAC-2	0.44
SK-LU-1	0.912
NCI-H661	0.887
CAL-12T	1.01
HOP-62	0.248
PC-14	0.143
NCI-H1993	0.566
NCI-H2405	1.04
NCI-H3122	0.201
A-427	0.96
LOU-NH91	0.397

Cell Line	relative viability
NCI-H596	0.475
NCI-H1666	0.822
NCI-H23	0.62
NCI-H838	0.231
NCI-H322M	0.662
NCI-H441	0.267
SW 1573	0.75
201T	0.311
NCI-H1755	0.399
NCI-H1650	0.398
ChaGo-K-1	0.247
COR-L23	0.189
NCI-H2085	0.879
NCI-H460	0.058
BEN	0.959
PC-3 [JPC-3]	1.12
LC-2-ad	0.285

Same assay, conditions: first compound 0.01 µM

Cell Line	relative viability
HCC-78	0.968
COR-L 105	1.29
HCC-15	0.248
HARA	0.266
NCI-H1975	0.316
NCI-H2126	0.765
EMC-BAC-2	0.451
SK-LU-1	1.08
NCI-H661	0.926
CAL-12T	1.36
HOP-62	0.315
PC-14	0.13
NCI-H1993	0.567
NCI-H2405	1.02
NCI-H3122	0.193
A-427	0.84
LOU-NH91	0.386

Cell Line	relative viability
NCI-H596	0.498
NCI-H1666	0.85
NCI-H23	0.639
NCI-H838	0.268
NCI-H322M	0.639
NCI-H441	0.247
SW 1573	0.826
201T	0.306
NCI-H1755	0.412
NCI-H1650	0.441
ChaGo-K-1	0.264
COR-L23	0.208
NCI-H2085	0.97
NCI-H460	0.0614
BEN	0.681
PC-3 [JPC-3]	0.852
LC-2-ad	0.268

Same assay, conditions: first compound 0.03162 µM

Cell Line	relative viability
HCC-78	0.869
HCC-15	0.216
HARA	0.222
NCI-H1975	0.295
NCI-H2126	0.663
SK-LU-1	0.975
NCI-H661	0.898
CAL-12T	0.998
HOP-62	0.325
NCI-H1993	0.67
NCI-H2405	1.08
NCI-H3122	0.2
A-427	0.884
LOU-NH91	0.377
NCI-H596	0.476
NCI-H1666	0.827
NCI-H23	0.593
NCI-H838	0.257
NCI-H322M	0.62
NCI-H441	0.255
201T	0.302
NCI-H1755	0.464
ChaGo-K-1	0.26
COR-L23	0.194
NCI-H2085	0.836
BEN	0.659
PC-3 [JPC-3]	1
LC-2-ad	0.269

Same assay, conditions: first compound 0.1 µM

Cell Line	relative viability
HCC-78	0.917
COR-L 105	1.3
HCC-15	0.224
HARA	0.304
NCI-H1975	0.294
NCI-H2126	0.689
EMC-BAC-2	0.493
SK-LU-1	0.993
NCI-H661	0.89
CAL-12T	1.49
HOP-62	0.323
PC-14	0.162
NCI-H1993	0.59
NCI-H2405	1.15
NCI-H3122	0.211
A-427	0.954
LOU-NH91	0.436

Cell Line	relative viability
NCI-H596	0.459
NCI-H1666	0.914
NCI-H23	0.635
NCI-H838	0.236
NCI-H322M	0.703
NCI-H441	0.287
SW 1573	0.848
201T	0.365
NCI-H1755	0.378
NCI-H1650	0.381
ChaGo-K-1	0.264
COR-L23	0.211
NCI-H2085	0.833
NCI-H460	0.073
BEN	0.78
PC-3 [JPC-3]	1.17
LC-2-ad	0.233

Compound: COCC[n+]1c2c(n(Cc3cnccn3)c1C)C(=O)c1ccccc1C2=O [YM155] + O=C(CCCCCCC(=O)Nc1ccccc1)NO [Vorinostat] (partner 1 µM)
Assay: as above
Settings: first compound 0.002 µM
Method in brief: as §1

Cell Line	relative viability
HCC-78	0.469
COR-L 105	0.77
HCC-15	0.851
HARA	0.578
NCI-H1975	0.661
NCI-H2126	0.782
EMC-BAC-2	0.428
SK-LU-1	0.732
NCI-H661	0.765
CAL-12T	0.624
HOP-62	0.516
PC-14	0.669
NCI-H1993	0.739
NCI-H2405	0.973
NCI-H3122	0.828
A-427	0.812
LOU-NH91	0.883

Cell Line	relative viability
NCI-H596	0.554
NCI-H1666	0.923
NCI-H838	0.705
NCI-H322M	0.85
NCI-H441	0.741
SW 1573	0.698
201T	0.931
NCI-H1755	0.752
NCI-H1650	0.545
ChaGo-K-1	0.772
COR-L23	0.434
NCI-H2085	0.677
NCI-H460	0.706
BEN	0.516
PC-3 [JPC-3]	0.746
LC-2-ad	0.682

Same assay, conditions: first compound 0.006325 µM

Cell Line	relative viability
HCC-78	0.458
COR-L 105	0.875
HCC-15	0.836
HARA	0.462
NCI-H1975	0.667
NCI-H2126	0.834
EMC-BAC-2	0.452
SK-LU-1	0.762
NCI-H661	0.784
CAL-12T	0.723
HOP-62	0.595
PC-14	0.694
NCI-H1993	0.714
NCI-H2405	0.964
NCI-H3122	0.746
A-427	0.849
LOU-NH91	0.921

Cell Line	relative viability
NCI-H596	0.468
NCI-H1666	1.11
NCI-H23	0.555
NCI-H838	0.759
NCI-H322M	0.925
NCI-H441	0.716
SW 1573	0.731
201T	0.96
NCI-H1755	0.671
NCI-H1650	0.427
ChaGo-K-1	0.744
COR-L23	0.501
NCI-H2085	0.795
NCI-H460	0.727
BEN	0.511
PC-3 [JPC-3]	0.889
LC-2-ad	0.637

Same assay, conditions: first compound 0.02 µM

Cell Line	relative viability
HCC-78	0.429
COR-L 105	0.905
HCC-15	0.872
HARA	0.547
NCI-H1975	0.641
NCI-H2126	0.865
EMC-BAC-2	0.606
SK-LU-1	0.845
NCI-H661	0.883
CAL-12T	0.623
HOP-62	0.727
PC-14	0.779
NCI-H1993	0.667
NCI-H2405	0.917
NCI-H3122	1.05
A-427	0.838
LOU-NH91	0.949

Cell Line	relative viability
NCI-H596	0.676
NCI-H1666	1.03
NCI-H23	0.626
NCI-H838	0.68
NCI-H322M	0.854
NCI-H441	0.741
SW 1573	0.603
201T	0.982
NCI-H1755	0.622
NCI-H1650	0.468
ChaGo-K-1	0.787
COR-L23	0.274
NCI-H2085	0.757
NCI-H460	0.802
BEN	0.619
PC-3 [JPC-3]	0.855
LC-2-ad	0.705

Same assay, conditions: first compound 0.06325 µM

Cell Line	relative viability
HCC-78	0.472
COR-L 105	0.541
HCC-15	0.881
HARA	0.606
NCI-H1975	0.442
NCI-H2126	0.851
EMC-BAC-2	0.256
SK-LU-1	0.642
NCI-H661	0.364
CAL-12T	0.412
HOP-62	0.577
PC-14	0.252
NCI-H1993	0.523
NCI-H2405	0.533
NCI-H3122	0.976
A-427	0.629
LOU-NH91	0.932

Cell Line	relative viability
NCI-H596	0.551
NCI-H1666	1.03
NCI-H23	0.544
NCI-H838	0.377
NCI-H322M	0.909
NCI-H441	0.268
SW 1573	0.0728
201T	0.961
NCI-H1755	0.845
NCI-H1650	0.3
ChaGo-K-1	0.747
COR-L23	0.125
NCI-H2085	0.625
NCI-H460	0.688
BEN	0.679
PC-3 [JPC-3]	0.74
LC-2-ad	0.65
